Patent publication US20040186081A1, “Naaladase inhibitors for treating opioid tolerance” (Guilford Pharmaceuticals Inc., priority 2003, published 2004)
Entries after “also recorded” stand apart in the source; their conditions may differ. Peptide text beside a SMILES is read from it.

How the values were obtained:
C57/BL mice [1] = assay: animal or person; format: in vivo; details: 2-PMPA 50 or 100 mg/kg given prior to each dose of morphine
Method: (§1) Male C57/BL mice (IMP, Lodz, Poland), 22-24 g of body weight were group-housed in the standard laboratory cages and kept in a temperature-controlled colony room (21+2° C.) with a 12-hr light/dark cycle (light on: 07:00, off: 19:00). Commercial food and tap water were available ad libitum. Each experimental group consisted of 7-28 mice per treatment. All mice were used only once.
(§2) The intensity of the heat stimulus was adjusted so that the baseline tail-flick latency was ˜3 s. […] Each response assessment consisted of two separate measurements taken at different portions of the tail (spaced by 1.5-2 cm) and separated by 15 s. The mean of these responses was used for subsequent comparisons.

[2] = tested on: over 100 different receptors, ion channels, transporters, and enzymes including NMDA, AMPA, metabotropic glutamate receptors and glutamate transporters; details: cited from earlier work
C57/BL mice [3] = assay: Acute effects in the tail-flick test (Experiment 2); format: in vivo
Method: as §1, §2

NAALADase = NAALADase (Homo sapiens, UniProt Q04609); details: read-out: Km of NAALADase for NAAG; cited from earlier work
NAALADase, sequence (Q04609 whole entry): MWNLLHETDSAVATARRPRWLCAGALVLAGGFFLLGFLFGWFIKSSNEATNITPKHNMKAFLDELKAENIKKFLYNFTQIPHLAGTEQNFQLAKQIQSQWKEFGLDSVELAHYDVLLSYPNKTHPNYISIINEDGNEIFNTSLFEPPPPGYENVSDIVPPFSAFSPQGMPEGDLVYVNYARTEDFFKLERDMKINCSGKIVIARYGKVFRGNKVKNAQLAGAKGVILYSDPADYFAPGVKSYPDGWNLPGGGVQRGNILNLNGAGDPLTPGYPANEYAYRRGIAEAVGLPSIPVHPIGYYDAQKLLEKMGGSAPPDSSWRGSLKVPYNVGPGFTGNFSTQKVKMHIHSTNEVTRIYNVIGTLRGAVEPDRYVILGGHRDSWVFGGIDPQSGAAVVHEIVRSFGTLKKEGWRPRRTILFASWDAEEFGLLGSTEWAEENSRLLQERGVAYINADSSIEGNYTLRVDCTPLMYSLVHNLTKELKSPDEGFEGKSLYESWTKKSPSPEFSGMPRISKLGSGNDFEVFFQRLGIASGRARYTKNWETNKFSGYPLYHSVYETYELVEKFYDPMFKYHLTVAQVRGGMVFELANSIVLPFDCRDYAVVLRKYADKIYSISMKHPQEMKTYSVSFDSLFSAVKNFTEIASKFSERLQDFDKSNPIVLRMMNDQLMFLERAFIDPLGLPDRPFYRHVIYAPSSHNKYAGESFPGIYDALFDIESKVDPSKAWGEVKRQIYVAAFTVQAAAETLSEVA

[4] = molecular target: mGluRII receptors (mGluR3) (Homo sapiens, UniProt Q14832); details: read-out: EC50 as direct agonist at mGluRII receptors; cited from earlier work
mGluRII receptors (mGluR3), sequence (Q14832 23-879): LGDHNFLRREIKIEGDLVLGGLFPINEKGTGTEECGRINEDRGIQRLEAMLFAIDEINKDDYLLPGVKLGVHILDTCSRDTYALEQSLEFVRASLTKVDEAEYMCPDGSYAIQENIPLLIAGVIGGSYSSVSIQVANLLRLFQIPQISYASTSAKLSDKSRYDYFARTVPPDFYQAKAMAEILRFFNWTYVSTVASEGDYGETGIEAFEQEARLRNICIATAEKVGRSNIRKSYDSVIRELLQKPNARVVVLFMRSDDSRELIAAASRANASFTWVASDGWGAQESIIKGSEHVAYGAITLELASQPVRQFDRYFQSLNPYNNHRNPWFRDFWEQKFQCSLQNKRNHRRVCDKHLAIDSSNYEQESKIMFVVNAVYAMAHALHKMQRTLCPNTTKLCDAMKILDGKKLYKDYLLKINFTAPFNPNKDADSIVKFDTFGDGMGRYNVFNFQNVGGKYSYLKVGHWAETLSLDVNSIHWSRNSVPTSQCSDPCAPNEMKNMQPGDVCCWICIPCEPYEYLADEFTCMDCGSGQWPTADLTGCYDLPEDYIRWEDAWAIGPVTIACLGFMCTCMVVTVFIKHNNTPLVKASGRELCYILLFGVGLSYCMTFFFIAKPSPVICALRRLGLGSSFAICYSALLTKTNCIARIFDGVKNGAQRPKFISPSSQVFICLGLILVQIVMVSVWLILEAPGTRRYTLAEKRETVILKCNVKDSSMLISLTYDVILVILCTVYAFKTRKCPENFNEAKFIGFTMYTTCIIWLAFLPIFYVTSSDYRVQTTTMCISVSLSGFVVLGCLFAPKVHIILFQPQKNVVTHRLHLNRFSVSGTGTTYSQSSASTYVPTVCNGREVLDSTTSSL

O=C(O)CCC(CP(=O)(O)O)C(=O)O (stereo not drawn) [2-PMPA, 2-phosphonomethyl pentanedioic acid]
effect on the development of morphine tolerance (C57/BL mice [1]): attenuated the development of morphine tolerance | affinity for over 100 different receptors, ion channels, transporters, and enzymes [2]: no apparent affinity | effect on antinociceptive effects of morphine (C57/BL mice [3]; 100 mg/kg 2-PMPA i.p. 30 min before 1.5 or 3 mg/kg morphine s.c.): did not affect antinociceptive effects; also recorded: did not differ | tail-flick responses (AUC) compared to placebo+placebo (C57/BL mice [3]; 100 mg/kg of 2-PMPA i.p. + placebo): did not affect tail-flick responses; also recorded: did not differ from placebo+placebo treatment

CC(=O)N[C@@H](CC(=O)O)C(=O)N[C@@H](CCC(=O)O)C(=O)O [NAAG, N-acetyl-aspartyl-glutamate] (Ac-Asp-Glu-OH)
Km (NAALADase): 0.54 µM | EC50 [4]: ~26 µM
